Where a name gives a salt, the structure may show the parent alone.
biological target: IRAK4 (Homo sapiens (Human), UniProt Q9NWZ3); assay: IRAK4 kinase activity, IMAP fluorescence polarization assay; assay type: biochemical; details: 100 μM ATP, 0.5 nM GST tagged IRAK4; read-out: IRAK4 IC50
Procedure: The kinase activity of IRAK4 is determined by its ability to catalyze the phosphorylation of a fluorescent polypeptide substrate. The extent of phosphorylation is measured using IMAP technology (Molecular Devices) where the phosphorylated fluorescent substrate binds to the large M(III)-based nanoparticles which reduces the rotational speed of the substrate and thus increases its fluorescent polarization (FP).
Assay Procedure: A 20 μl reaction mixture contains 10 mM TriHCl, pH 7.2, 0.5 nM GST tagged IRAK4 (SignalChem), 100 nM fluorescent peptide substrate (RP7030, Molecular Devices), 100 μM ATP, 1 mM DTT, 1 mM MgCl2, and 0.01% Tween 20. The reaction is initiated by the addition of ATP. After incubation for 30 minutes at 25° C., 60 μl of Progressive IMAP Reagent (Molecular Devices) is added to stop the reaction. Change in RP7030's FP is determined by a FP reader (Analyst HT, LJL BioSystems)

Chain of IRAK4 (Q9NWZ3 whole entry): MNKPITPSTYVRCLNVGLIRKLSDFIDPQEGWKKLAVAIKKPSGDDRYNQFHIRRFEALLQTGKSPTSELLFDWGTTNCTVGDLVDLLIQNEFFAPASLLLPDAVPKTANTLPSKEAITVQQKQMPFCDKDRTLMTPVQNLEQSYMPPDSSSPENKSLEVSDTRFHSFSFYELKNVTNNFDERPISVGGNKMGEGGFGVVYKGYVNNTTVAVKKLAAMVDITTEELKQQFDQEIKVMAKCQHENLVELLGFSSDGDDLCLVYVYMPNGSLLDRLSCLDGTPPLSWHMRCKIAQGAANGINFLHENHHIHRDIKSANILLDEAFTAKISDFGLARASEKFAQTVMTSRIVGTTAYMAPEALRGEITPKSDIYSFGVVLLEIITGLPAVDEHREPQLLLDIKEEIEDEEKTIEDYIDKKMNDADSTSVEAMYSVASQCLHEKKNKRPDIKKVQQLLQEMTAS

Row | Compound | IC50
1 | C[C@@]1(O)[C@H](O)[C@@H](CO)C[C@H]1Nc1nc(NC2CCC2)[nH]c(=O)c1-c1nc2ccccc2s1 [Example 41, 5-(Benzo[d]thiazol-2-yl)-2-(cyclobutylamino)-6-((1R,2S,3R,4R)-2,3-dihydroxy-4-(hydroxymethyl)-2-methylcyclopentylamino)pyrimidin-4(3H)-one.HCl] | 459 nM
2 | O=c1[nH]c(N2CCOCC2)nc(N[C@@H]2CCCNC2)c1-c1nc2cc(C(F)(F)F)ccc2s1 [Example 337, 2-(morpholin-4-yl)-6-[[(3R)-piperidin-3-yl]amino]-5-[5-(trifluoromethyl)-1,3-benzothiazol-2-yl]-3,4-dihydropyrimidin-4-one] | 70 nM
3 | O=c1[nH]c(N2CCCCC2)nc(N[C@@H]2CCCNC2)c1-c1nc2c(C3CC3)nccc2s1 [Example 117, (R)-5-(4-cyclopropylthiazolo[4,5-c]pyridin-2-yl)-2-(piperidin-1-yl)-6-(piperidin-3-ylamino)pyrimidin-4(3H)-one.HCl] | 8.6 nM
4 | O=c1[nH]c(NC2CNC2)nc(N[C@@H]2C[C@H](CO)[C@@H](O)[C@H]2O)c1-c1nc2ccccc2s1 [Example 36, 2-(Azetidin-3-ylamino)-5-(benzo[d]thiazol-2-yl)-6-(((1R,2S,3R,4R)-2,3-dihydroxy-4-(hydroxymethyl)cyclopentyl)amino)pyrimidin-4(3H)-one.HCl] | 656 nM
5 | CN(C)c1nc(N[C@@H]2C[C@H](CO)[C@@H](O)[C@H]2O)c(-c2nc3ccccc3s2)c(=O)[nH]1 [Example 30, 5-(Benzo[d]thiazol-2-yl)-6-(((1R,2S,3R,4R)-2,3-dihydroxy-4-(hydroxymethyl)cyclopentyl)amino)-2-(dimethylamino)pyrimidin-4(3H)-one.HCl] | 542 nM
6 | N#Cc1ccc2sc(-c3c(N[C@@H]4CCCNC4)nc(N4CCOCC4)[nH]c3=O)nc2c1 [Example 348, 2-[2-(morpholin-4-yl)-6-oxo-4-[[(3R)-piperidin-3-yl]amino]-1,6-dihydropyrimidin-5-yl]-1,3-benzothiazole-5-carbonitrile] | 5 nM
7 | Cc1nccc2sc(-c3c(N[C@@H]4C[C@H](CO)[C@@H](O)[C@H]4O)nc(N4CCOCC4)[nH]c3=O)nc12 [Example 56, 6-(((1R,2S,3R,4R)-2,3-Dihydroxy-4-(hydroxymethyl)cyclopentyl)amino)-5-(4-methylthiazolo[4,5-c]pyridin-2-yl)-2-morpholinopyrimidin-4(3H)-one.HCl] | 8.4 nM
8 | O=c1[nH]c(N2CCOCC2)nc(N[C@@H]2CCCNC2)c1-c1nc2c(C3CC3)nccc2s1 [Example 111, (R)-5-(4-cyclopropylthiazolo[4,5-c]pyridin-2-yl)-2-morpholino-6-(piperidin-3-ylamino)pyrimidin-4(3H)-one.HCl] | 9 nM
9 | O=c1[nH]c(N2CCOCC2)nc(N[C@@H]2CCCNC2)c1-c1nc2ccc(F)cc2s1 [Example 112, (R)-5-(6-fluorobenzo[d]thiazol-2-yl)-2-morpholino-6-(piperidin-3-ylamino)pyrimidin-4(3H)-one.HCl] | 46 nM
10 | CCc1nc(N[C@@H]2C[C@H](CO)[C@@H](O)[C@H]2O)c(-c2nc3ccccc3s2)c(=O)[nH]1 [Example 61, 5-(Benzo[d]thiazol-2-yl)-6-((1R,2S,3R,4R)-2,3-dihydroxy-4-(hydroxymethyl)cyclopentylamino)-2-ethylpyrimidin-4(3H)-one.HCl] | 1160 nM
11 | Cc1csc(-c2c(N[C@@H]3C[C@H](CO)[C@@H](O)[C@H]3O)nc(N3CCOCC3)[nH]c2=O)n1 [Example 32, 6-(((1R,2S,3R,4R)-2,3-Dihydroxy-4-(hydroxymethyl)cyclopentyl)amino)-5-(4-methylthiazol-2-yl)-2-morpholinopyrimidin-4(3H)-one.HCl] | 26.6 nM
12 | O=c1[nH]c(N2CCN(c3cccnc3)CC2)nc(N[C@@H]2CCCNC2)c1-c1nc(-c2ccc(F)cc2)cs1 [Example 349, 5-[4-(4-fluorophenyl)-1,3-thiazol-2-yl]-6-[[(3R)-piperidin-3-yl]amino]-2-[4-(pyridin-3-yl)piperazin-1-yl]-3,4-dihydropyrimidin-4-one] | 20 nM
13 | O=c1[nH]c(N2CCOCC2)nc(N[C@@H]2CCCNC2)c1-c1ncc(F)cn1 [Example 220, (R)-5-fluoro-2′-morpholino-6′-(piperidin-3-ylamino)-[2,5′-bipyrimidin]-4′(3′H)-one] | 220 nM
14 | O=c1[nH]c(N2CCOCC2)nc(NC2CCCCNC2)c1-c1nc2ccccc2s1 (stereo not drawn) [Example 92, 6-(Azepan-3-ylamino)-5-(benzo[d]thiazol-2-yl)-2-morpholinopyrimidin-4(3H)-one.HCl] | 27 nM

same assay, conditions: 100 μM ATP; read-out: IC50

Row | Compound | IC50
15 | O=c1[nH]c(N2CCOCC2)nc(N[C@@H]2CCCNC2)c1-c1ccc(C2CC2)cn1 [Example 224, (R)-5-(5-cyclopropylpyridin-2-yl)-2-morpholino-6-(piperidin-3-ylamino)pyrimidin-4(3H)-one] | 512 nM
16 | CCC(CO)Nc1nc(N2CCOCC2)[nH]c(=O)c1-c1nc2ccccc2s1 (stereo not drawn) [Example 262, 5-(benzo[d]thiazol-2-yl)-6-(1-hydroxy-butan-2-ylamino)-2-morpholino-pyrimidin-4(3H)-one] | 330 nM
17 | O=c1[nH]c(N2CCOC(CO)C2)nc(N[C@@H]2CCCNC2)c1-c1nc2ccccc2s1 (stereo partly drawn) [Example 285, 5-(1,3-benzothiazol-2-yl)-2-[2-(hydroxymethyl)morpholin-4-yl]-6-[[(3R)-piperidin-3-yl]amino]-3,4-dihydropyrimidin-4-one] | 43 nM
18 | O=c1[nH]c(N2CCOCC2)nc(NCCN2CCCCC2)c1-c1nc2ccccc2s1 [Example 257, 5-(1,3-benzothiazol-2-yl)-2-(morpholin-4-yl)-6-[[2-(piperidin-1-yl)ethyl]amino]-3,4-dihydropyrimidin-4-one] | 2 nM
19 | O=c1[nH]c(N2CCOCC2)nc(NCCN2CCCC2)c1-c1ccc2ccccc2n1 [Example 279, 2-(morpholin-4-yl)-6-[[2-(pyrrolidin-1-yl)ethyl]amino]-5-(quinolin-2-yl)-3,4-dihydropyrimidin-4-one] | 4900 nM
20 | O=c1[nH]c(N2CCOCC2)nc(NCC2CCCCN2)c1-c1nc2ccccc2s1 (stereo not drawn) [Example 254, 5-(1,3-benzothiazol-2-yl)-2-(morpholin-4-yl)-6-[(piperidin-2-ylmethyl)amino]-3,4-dihydro-pyrimidin-4-one] | 1600 nM
21 | CC(=O)NC1CCN(c2nc(N[C@@H]3CCCNC3)c(-c3nc4ccccc4s3)c(=O)[nH]2)CC1 [Example 333, N-[1-[5-(1,3-benzothiazol-2-yl)-6-oxo-4-[[(3R)-piperidin-3-yl]amino]-1,6-dihydropyrimidin-2-yl]piperidin-4-yl]acetamide trifluoroacetic acid] | 94 nM
22 | CCN1CCCC1CNc1nc(N2CCOCC2)[nH]c(=O)c1-c1nc2ccccc2s1 (stereo not drawn) [Example 255, 5-(1,3-benzothiazol-2-yl)-6-[[(1-ethylpyrrolidin-2-yl)methyl]amino]-2-(morpholin-4-yl)-3,4-dihydropyrimidin 4-one] | 2000 nM
23 | O=c1[nH]c(C2CCN(C3CCOC3)CC2)nc(N[C@@H]2CCCNC2)c1-c1nc2ccccc2s1 (stereo partly drawn) [Example 233, 5-(1,3-benzothiazol-2-yl)-2-[1-(oxolan-3-yl)piperidin-4-yl]-6-[[(3R)-piperidin-3-yl]amino]pyrimidin-4-ol] | 180 nM

same assay, conditions: 100 μM ATP; read-out: IRAK4 IC50

Row | Compound | IC50
24 | O=c1[nH]c(N2CCN(c3ccc4c(c3)OCO4)CC2)nc(N[C@@H]2CCCNC2)c1-c1nc2ccccc2s1 [Example 155, (R)-2-(4-(benzo[d][1,3]dioxol-5-yl)piperazin-1-yl)-5-(benzo[d]thiazol-2-yl)-6-(piperidin-3-ylamino)pyrimidin-4(3H)-one] | 11 nM
25 | Cc1cnccc1N1CCN(c2nc(N[C@@H]3CCCNC3)c(-c3nc4ccccc4s3)c(=O)[nH]2)CC1 [Example 158, (R)-5-(benzo[d]thiazol-2-yl)-2-(4-(3-methylpyridin-4-yl)piperazin-1-yl)-6-(piperidin-3-ylamino)pyrimidin-4(3H)-one] | 8 nM
26 | Cc1cc(C2CCN(c3nc(N[C@@H]4CCCNC4)c(-c4ccc5ccccc5n4)c(=O)[nH]3)CC2)[nH]n1 [Example 192, (R)-2-(4-(3-methyl-1H-pyrazol-5-yl)piperidin-1-yl)-6-(piperidin-3-ylamino)-5-(quinolin-2-yl)pyrimidin-4(3H)-one] | 66 nM
27 | O=c1[nH]c(N2CCOCC2)nc(N[C@@H]2CCCNC2)c1-c1nc(-c2cc(F)ccc2F)cs1 [Example 205] | 90 nM

same assay, conditions: unit inferred; 100 μM ATP; read-out: IRAK4 IC50

Row | Compound | IC50
28 | O=c1[nH]c(N2CCC(c3cccnc3)CC2)nc(N[C@@H]2C[C@H](CO)[C@@H](O)[C@H]2O)c1-c1nc2ccccc2s1 [Example 70, 5-(benzo[d]thiazol-2-yl)-6-((1R,2S,3R,4R)-2,3-dihydroxy-4-(hydroxymethyl)cyclopentylamino)-2-(4-(pyridin-3-yl)piperidin-1-yl)pyrimidin-4(3H)-one] | 13.3 nM
29 | O=c1[nH]c(N2CCC(c3ccncc3)C2)nc(N[C@@H]2C[C@H](CO)[C@@H](O)[C@H]2O)c1-c1nc2ccccc2s1 (stereo partly drawn) [Example 76, 5-(benzo[d]thiazol-2-yl)-6-((1R,2S,3R,4R)-2,3-dihydroxy-4-(hydroxymethyl)cyclopentylamino)-2-(3-(pyridin-4-yl)pyrrolidin-1-yl)pyrimidin-4(3H)-one] | 30.9 nM
30 | O=c1[nH]c(N2CCC(Cn3cccn3)CC2)nc(N[C@@H]2C[C@H](CO)[C@@H](O)[C@H]2O)c1-c1nc2ccccc2s1 [Example 80, 2-(4-((1H-pyrazol-1-yl)methyl)piperidin-1-yl)-5-(benzo[d]thiazol-2-yl)-6-((1R,2S,3R,4R)-2,3-dihydroxy-4-(hydroxymethyl)cyclopentylamino)pyrimidin-4(3H)-one] | 119 nM

Reference: patent US9221809B2 (MERCK SHARP & DOHME CORP., priority 2011, dated 2015)
